One may read the IC50 as the concentration at which inhibition is half-maximal.

The text below walks through data of patent US7696218B2, “Substituted 1,3-dialkyl-2,4-dioxo-6-(arylamino)-1,2,3,4-tetrahydropyrimidine-5-hydroxamic acid inhibitors of MAPK/ERK kinase” (Takeda San Diego, Inc., priority 2006, dated 2010).

For this assay, the target named is T1, MEK2 (Homo sapiens, UniProt P36507, S222E/S226D).
T1 construct: 6-histidine tag (N); made in house; host or cells: Spodoptera frugiperda Sf9 (baculovirus) for MEK2; E. coli for ERK1
T1 sequence (P36507 with tags, fused parts or gaps S222E/S226D): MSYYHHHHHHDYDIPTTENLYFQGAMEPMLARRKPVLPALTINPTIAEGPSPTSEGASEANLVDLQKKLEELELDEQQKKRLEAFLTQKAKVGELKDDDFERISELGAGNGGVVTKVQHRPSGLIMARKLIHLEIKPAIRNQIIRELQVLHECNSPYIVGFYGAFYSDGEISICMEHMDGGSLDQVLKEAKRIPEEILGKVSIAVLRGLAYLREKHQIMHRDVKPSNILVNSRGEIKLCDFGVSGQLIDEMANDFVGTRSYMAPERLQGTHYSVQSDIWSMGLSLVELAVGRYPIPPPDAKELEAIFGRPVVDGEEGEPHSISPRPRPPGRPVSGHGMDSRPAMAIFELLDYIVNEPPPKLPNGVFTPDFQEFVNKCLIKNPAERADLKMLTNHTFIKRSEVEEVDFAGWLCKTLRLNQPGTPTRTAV
The experiment in a line: MEK2 inhibition assay, fluorescence polarization with IMAP beads (ERK1 / FI-Erktide substrate). The settings on record: 4 nM MEK2, 25 nM ERK1, 400 μM ATP, 500 nM FI-Erktide, 1% DMSO, 22 min at room temperature; values given as ranges; read-out: IC50 of Exemplified Compounds Against MEK2. The format is biochemical. The text has this:
For MEK2, DNA encoding residues 1-400 (S222E/S226D) of the full-length sequence of the human enzyme may be amplified by PCR and cloned into pFastbac (Invitrogen), which incorporates a 6-histidine tag at the N-terminus. The two mutations, S222E and S226D, may be obtained by quick change PCR. SEQ ID NO: 3 corresponds to residues 1-400 with mutations S222E/S226D, and with the N-terminal 6-histidine tag and SEQ ID NO: 4 is the DNA sequence that was used to encode SEQ ID NO: 3.
Recombinant baculovirus incorporating the MEK1 and MEK2 constructs may be generated by transposition using the Bac-to-Bac system (Invitrogen). High-titer viral stocks may be generated by infection of Spodoptera frugiperda Sf9 cells; the expression of recombinant protein may be carried out by infection of Spodoptera frugiperda Sf9 (Invitrogen) in 5L Wave Bioreactors (Wave Biotech).
Recombinant protein may be isolated from cellular extracts by passage over ProBond resin (Invitrogen). Partially purified extracts of all MEK1 may then be further purified by high pressure liquid chromatography over a SEC2000 gel filtration resin. The purity of MEK1 and MEK2 proteins may be determined on denaturing SDS-PAGE gel. Purified MEK1 and MEK2 may then be concentrated to a final concentration of 3.4 mg/ml and 5.4 mg/ml, respectively. The proteins may be either stored at −78° C. in a buffer containing 50 mM TRIS-HCl pH 7.6, 250 mM NaCl, 0.1 mM EDTA and 0.125 mM TCEP or at −20° C. in the presence of glycerol (final concentration of glycerol at 50%).
The inhibitory properties of compounds relative to MEK1 or MEK2 may be determined using a black 384-well-plate format under the following reaction conditions: 50 mM HEPES pH 7.3, 10 mM NaCl, 10 mM MgCl2, 0.01% Brij35, 1 nM MEK1 or 4 nM MEK2, 25 nM ERK1, 400 μM ATP, 500 nM IPTTPITTYFFFK-5FAM-COOH (FI-Erktide), and 1% DMSO. Reaction product is determined quantitatively by fluorescent polarization using progressive IMAP beads from Molecular Devices.
The assay reaction may be initiated as follows: 2 μl of the mixture of 1.5 μM FI-Erktide and 75 nM ERK with 2 μl of inhibitor (2 fold serial dilutions for 11 data points for each inhibitor) containing 3% DMSO were added to each well of the plate, followed by the addition of 2 μl of the mixture of 3 nM MEK1 or 12 nM MEK2 and 1200 μM ATP to initiate the reaction (final enzyme concentration was 1 nM for MEK1 or 4 nM for MEK2). The reaction mixture may then be incubated at room temperature for 22 min, and quenched and developed by addition of 20 μl of 1:200 dilution of progressive IMAP beads (Molecular Devices) in 80% buffer A, 20% bufferB and 0.003% Tween 20. Fluorescence polarization of the resulting reaction mixtures may be measured after a 1 hour incubation at room temperature.
IC50 values may be calculated by non-linear curve fitting of the compound concentrations and fluorescence polarization signal to the standard IC50 equation.

Turning to `Cn1c(Nc2ccc(I)cc2F)c(C(=O)NOCC[C@H](O)CO)c(=O)n(C)c1=O` [Example 34, (S)-N-(3,4-Dihydroxybutoxy)-6-(2-fluoro-4-iodophenylamino)-1,3-dimethyl-2,4-dioxo-1,2,3,4-tetrahydropyrimidine-5-carboxamide], the IC50 fell in the range of 2500 to 25000 nM. For `Cc1cc(I)ccc1Nc1c(C(=O)NOCCO)c(=O)n(C)c(=O)n1C` [Example 35, N-(2-Hydroxyethoxy)-6-(4-iodo-2-methylphenylamino)-1,3-dimethyl-2,4-dioxo-1,2,3,4-tetrahydropyrimidine-5-carboxamide], the IC50 was ≤ 500 nM.

For the compound `Cn1c(Nc2ccc(I)c(F)c2F)c(C(=O)NOC[C@H](O)CO)c(=O)n(C)c1=O` [Example 36, (R)-6-(2,3-Difluoro-4-iodophenylamino)-N-(2,3-dihydroxypropoxy)-1,3-dimethyl-2,4-dioxo-1,2,3,4-tetrahydropyrimidine-5-carboxamide], the IC50 fell in the range of 501 to 2500 nM.

Regarding `Cn1c(Nc2ccc(I)cc2F)c(C(=O)NOC[C@@H](O)CO)c(=O)n(C)c1=O` [Example 37, (S)-N-(2,3-Dihydroxypropoxy)-6-(2-fluoro-4-iodophenylamino)-1,3-dimethyl-2,4-dioxo-1,2,3,4-tetrahydropyrimidine-5-carboxamide], the IC50 is ≤ 500 nM. Turning to `Cc1cc(I)ccc1Nc1c(C(=O)NOC[C@H](O)CO)c(=O)n(C)c(=O)n1C` [Example 38, (R)-N-(2,3-Dihydroxypropoxy)-6-(4-iodo-2-methylphenylamino)-1,3-dimethyl-2,4-dioxo-1,2,3,4-tetrahydropyrimidine-5-carboxamide], the IC50 is ≤ 500 nM.

Consider `Cn1c(Nc2ccc(I)cc2Cl)c(C(=O)NOC[C@@H](O)CO)c(=O)n(C)c1=O` [Example 39, (S)-6-(2-chloro-4-iodophenylamino)-N-(2,3-dihydroxypropoxy)-1,3-dimethyl-2,4-dioxo-1,2,3,4-tetrahydropyrimidine-5-carboxamide], for which the IC50 was ≤ 500 nM. In the case of `Cn1c(Nc2cc(F)c(I)cc2F)c(C(=O)NOC[C@H](O)CO)c(=O)n(C)c1=O` [Example 40, (R)-6-(2,5-Difluoro-4-iodophenylamino)-N-(2,3-dihydroxypropoxy)-1,3-dimethyl-2,4-dioxo-1,2,3,4-tetrahydropyrimidine-5-carboxamide] it was > 25000 nM. Take `CCc1cc(Nc2c(C(=O)NOCCO)c(=O)n(C)c(=O)n2C)ccc1I` [Example 41, 6-(3-Ethyl-4-iodophenylamino)-N-(2-hydroxyethoxy)-1,3-dimethyl-2,4-dioxo-1,2,3,4-tetrahydropyrimidine-5-carboxamide]: the IC50 was > 25000 nM. As to `Cn1c(Nc2ccc(I)cc2F)c(C(=O)NCCN)c(=O)n(C)c1=O` [Example 42, N-(2-Aminoethyl)-6-(2-fluoro-4-iodophenylamino)-1,3-dimethyl-2,4-dioxo-1,2,3,4-tetrahydropyrimidine-5-carboxamide], the IC50 lay in the range of 501 to 2500 nM.

For the compound `Cn1c(Nc2ccc(I)cc2F)c(C(=O)N2CCNCC2)c(=O)n(C)c1=O` [Example 43, 6-(2-Fluoro-4-iodophenylamino)-1,3-dimethyl-5-(piperazine-1-carbonyl)pyrimidine-2,4(1H,3H)-dione], the IC50 was > 25000 nM. As for `Cn1c(Nc2ccc(I)cc2F)c(C(=O)N2CCN(CCO)CC2)c(=O)n(C)c1=O` [Example 44, 6-(2-Fluoro-4-iodophenylamino)-5-(4-(2-hydroxyethyl)piperazine-1-carbonyl)-1,3-dimethylpyrimidine-2,4(1H,3H)-dione], the IC50 is > 25000 nM. As for `CN(C)NC(=O)c1c(Nc2ccc(I)cc2F)n(C)c(=O)n(C)c1=O` [Example 45, 6-(2-Fluoro-4-iodophenylamino)-N′,N′,1,3-tetramethyl-2,4-dioxo-1,2,3,4-tetrahydropyrimidine-5-carbohydrazide], the IC50 was in the range of 501 to 2500 nM. To `CCn1c(=O)c(C(=O)NOCCO)c(Nc2ccc(I)cc2F)n(C)c1=O` [Example 48, 3-Ethyl-6-(2-fluoro-4-iodophenylamino)-N-(2-hydroxyethoxy)-1-methyl-2,4-dioxo-1,2,3,4-tetrahydropyrimidine-5-carboxamide] belongs > 25000 nM; to `CCn1c(Nc2ccc(I)cc2F)c(C(=O)NOCCO)c(=O)n(C)c1=O` [Example 51, 1-Ethyl-6-(2-fluoro-4-iodophenylamino)-N-(2-hydroxyethoxy)-3-methyl-2,4-dioxo-1,2,3,4-tetrahydropyrimidine-5-carboxamide], > 25000 nM; to `Cn1c(=O)c(C(=O)NOC[C@H](O)CO)c(Nc2ccc(I)cc2F)n(CF)c1=O` [Example 54, (R)-N-(2,3-Dihydroxypropoxy)-6-(2-fluoro-4-iodophenylamino)-1-(fluoromethyl)-3-methyl-2,4-dioxo-1,2,3,4-tetrahydropyrimidine-5-carboxamide], 501 to 2500 nM. As to `Cn1c(Nc2ccc(I)cc2F)c(C(=O)NCCO)c(=O)n(C)c1=O` [Example 55, 6-(2-Fluoro-4-iodophenylamino)-N-(2-hydroxyethyl)-1,3-dimethyl-2,4-dioxo-1,2,3,4-tetrahydropyrimidine-5-carboxamide], the IC50 lay within 501 to 2500 nM. In the case of `Cn1c(Nc2ccc(I)cc2F)c(C(=O)NOC[C@H](O)CCO)c(=O)n(C)c1=O` [Example 56, 6-(2-Fluoro-4-iodo-phenylamino)-1,3-dimethyl-2,4-dioxo-1,2,3,4-tetrahydropyrimidine-5-carboxylic acid ((R)-2,4-dihydroxy-butoxy)-amide], the IC50 was in the range of 501 to 2500 nM. On to `Cn1c(Nc2ccc(I)cc2F)c(C(=O)NOC[C@@H](O)CCO)c(=O)n(C)c1=O` [Example 57, 6-(2-Fluoro-4-iodo-phenylamino)-1,3-dimethyl-2,4-dioxo-1,2,3,4-tetrahydropyrimidine-5-carboxylic acid ((S)-2,4-dihydroxy-butoxy)-amide], for which the IC50 is ≤ 500 nM. Turning to `Cn1c(Nc2ccc(I)cc2F)c(C(=O)N2CC(O)C2)c(=O)n(C)c1=O` [Example 58, 6-(2-Fluoro-4-iodo-phenylamino)-5-(3-hydroxy-azetidine-1-carbonyl)-1,3-dimethyl-1H-pyrimidine-2,4-dione], the IC50 was in the range of 2500 to 25000 nM.
